The values below come from ChEMBL document CHEMBL1201862, “PubChem BioAssay data set” (2004).

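1) Cells in 96-well plates. 2) Compound, 48 h, 5 concentrations. 3) Linear interpolation between surrounding doses. 4) Unreached endpoint = highest concentration. GI50: concentration for 50% inhibition of growth.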 Calls of active or inactive are those of the source. Cut-off read from the data, not from the text of the source: active = GI50 up to about 1.1 µM and inactive = higher. A value given as a limit tells only on which side of the number the result lay.

Test systems include HCT-15; SF-295; K562; Malme-3M; SK-MEL-5; SN12C; SF-539; BT-549; 786-0; SNB-75; MCF7; ACHN; EKVX; NCI-H23; PC-3; COLO 205; HOP-62; MOLT-4.
What all share (test): growth of human tumour cells (NCI), 48 h

On to `O=C(NCCCN1CCN(CCCNC(=O)Nc2cccc3ccccc23)CC1)Nc1cccc2ccccc12`, for which the GI50 with HCT-15 was 16.6 µM; in the assay on SF-295, 13.9 µM (inactive); with K562, 19.9 µM (inactive); in the assay on Malme-3M, 3.15 µM (inactive); in the assay with SK-MEL-5 it was 16.6 µM (inactive); in the assay with SN12C, 16.3 µM (inactive). Moreover, the GI50 is 18 µM (inactive) in the assay with SF-539; 13.2 µM (inactive) in the assay with BT-549; 18.9 µM (inactive) with 786-0; 15.5 µM (inactive) in the assay on SNB-75; 17.5 µM (inactive) in the assay with MCF7; 16.3 µM (inactive) with ACHN. Moreover, the GI50 in the assay with EKVX is 9.82 µM (inactive); with NCI-H23, 16.2 µM (inactive); in the assay on PC-3, 9.93 µM (inactive); with COLO 205, 15.7 µM (inactive); in the assay with HOP-62, 11.7 µM (inactive).

For `CCCCCCCCCCc1c2nc(c(CCCCCCCCCC)c3ccc([nH]3)c(CCCCCCCCCC)c3nc(c(CCCCCCCCCC)c4ccc1[nH]4)C=C3)C=C2`, the GI50 is more than 100 µM in the assay with HCT-15; > 100 µM (inactive) in the assay on SF-295; > 100 µM (inactive) in the assay on K562; > 100 µM (inactive) with Malme-3M; > 100 µM (inactive) with MOLT-4; > 100 µM (inactive) with SK-MEL-5. In addition, the GI50 in the assay on SN12C, in the assay with SF-539, in the assay on BT-549, in the assay with 786-0, in the assay with SNB-75 and with MCF7 was > 100 µM (inactive) throughout. The GI50 in the assay on ACHN, in the assay on EKVX, in the assay on NCI-H23, in the assay with PC-3, in the assay on COLO 205 and with HOP-62 was > 100 µM (inactive) each time.

Consider `CN(C)/N=N/c1ccc2[nH]c(=O)[nH]c2c1`, for which the GI50 is more than 100 µM with HCT-15; > 100 µM (inactive) in the assay on SF-295; > 100 µM (inactive) with K562; > 100 µM (inactive) in the assay on Malme-3M; > 100 µM (inactive) in the assay with SK-MEL-5; > 100 µM (inactive) in the assay on SN12C. Also, the GI50 in the assay on SF-539, in the assay with BT-549, in the assay on 786-0, with SNB-75, in the assay with MCF7 and in the assay with ACHN was > 100 µM (inactive) in each case. In addition, the GI50 with EKVX, in the assay on NCI-H23, with PC-3, in the assay with COLO 205 and in the assay with HOP-62 was > 100 µM (inactive) in each case.

On to `O=c1[nH]nc(Cc2ccccc2)n1/N=C\CC/C=N\n1c(Cc2ccccc2)n[nH]c1=O`, for which the GI50 in the assay with HCT-15 is 19.9 µM; in the assay on SF-295 it was 39.1 µM (inactive); with K562, 36.2 µM (inactive); in the assay on Malme-3M, 24.7 µM (inactive); in the assay with MOLT-4 it was 31.1 µM (inactive); with SK-MEL-5, 29.2 µM (inactive). Further, the GI50 in the assay with SN12C was > 100 µM (inactive); with SF-539, 19 µM (inactive); in the assay with BT-549, 25.8 µM (inactive); with 786-0, 29.5 µM (inactive); with SNB-75 it was 24.4 µM (inactive); in the assay on MCF7 it was 30 µM (inactive). Also, the GI50 is 49.9 µM (inactive) in the assay on ACHN; 36.6 µM (inactive) in the assay with EKVX; 23 µM (inactive) in the assay with NCI-H23; 37.4 µM (inactive) in the assay with PC-3; > 100 µM (inactive) with COLO 205; 22.1 µM (inactive) with HOP-62.
